We go through 15 compounds from US20160130259A1, “SUBSTITUTED BENZOFURAN COMPOUNDS AND METHODS OF USE THEREOF FOR THE TREATMENT OF VIRAL DISEASES” (priority 2013, published 2016).

Molecules are shown by their SMILES.

One assay concerns HCV replicon genotype 1b. The assay can be described thus: HCV replicon assay, genotype 1b (cell ELISA for NS3/4A). It is filed as cell-based. The settings on record: Hepatitis C virus, 96 h, read-out: 1b IC50 (nM). The method, then:
(§1) Measurement of inhibition by compounds was performed using the HCV replicon system. Several different replicons encoding different HCV genotypes or mutations were used. In addition, potency measurements were made using different formats of the replicon assay, including different ways of measurements and different plating formats. See Jan M. Vrolijk et al., A replicons-based bioassay for the measurement of interferons in patients with chronic hepatitis C, 110 J. Virological Methods 201 (2003); Steven S. Carroll et al., Inhibition of Hepatitis C Virus RNA Replication by 2′-Modified Nucleoside Analogs, 278(14) J. Biological Chemistry 11979 (2003). However, the underlying principles are common to all of these determinations, and are outlined below.
(§2) Stable neomycin phosphotransferase encoding replicons-harboring cell lines were used, so all cell lines were maintained under G418 selection prior to the assay. Potency was determined using a cell ELISA assay with an antibody to the replicons encoded NS3/4a protease. See Caterina Trozzi et al., In Vitro Selection and Characterization of Hepatitis C Virus Serine Protease Variants Resistant to an Active-Site Peptide Inhibitor, 77(6) J. Virol. 3669 (2003). To initiate an assay, replicon cells were plated in the presence of a dilution series of test compound in the absence of G418. Typically, the assays were performed in a 96-well plate formate for manual operation, or a 384-well plate format for automated assay. Replicon cells and compound were incubated for 96 hours. At the end of the assay, cells were washed free of media and compound, and the cells were then lysed. RNA was quantified indirectly through detection of replicon-encoded NS3/4A protein levels, through an ELISA-based assay with an antibody specific for NS3/4A. IC50 determinations were calculated as a percentage of a DMSO control by fitting the data to a four-parameter fit function and the data obtained is provided in the table below.
(§3) Data for selected compounds of the present invention was obtained for genotypes 1a and 1b using this method and is provided in the table below: […]

The test system of the next assay is HCV replicon genotype 1a. The assay is described as follows: HCV replicon assay, genotype 1a (cell ELISA for NS3/4A). The format is cell-based. The settings on record: Hepatitis C virus, 96 h, read-out: 1a IC50 (nM). The method, then: as §1, §2, §3
(In antiviral work, replicon cells carry a viral genome segment that copies itself.)

Regarding `CNC(=O)c1c(-c2ccc(F)cc2)oc2cc(N(C)S(C)(=O)=O)c(-c3cc(-c4cc5c(F)cccc5[nH]4)c(=O)n(C)c3)cc12` [Compound 1, 5-(5-(4-fluoro-1H-indol-2-yl)-1-methyl-6-oxo-1,6-dihydropyridin-3-yl)-2-(4-fluorophenyl)-N-methyl-6-(N-methylmethylsulfonamido)benzofuran-3-carboxamide], the IC50 – broadly, the concentration that inhibits the measured activity by half – is 3.88 nM in the assay on HCV replicon genotype 1b and 3.62 nM in the assay on HCV replicon genotype 1a.
For `CNC(=O)c1c(-c2ccc(F)cc2)oc2cc(N(C)S(C)(=O)=O)c(-c3cc(-c4cc5c(C#N)cccc5[nH]4)c(=O)n(C)c3)cc12` [Compound 2, 5-(5-(4-cyano-1H-indol-2-yl)-1-methyl-6-oxo-1,6-dihydropyridin-3-yl)-2-(4-fluorophenyl)-N-methyl-6-(N-methylmethylsulfonamido)-benzofuran-3-carboxamide] the same measures were 2.43 nM and 2.47 nM.
For `CNC(=O)c1c(-c2ccc(F)cc2)oc2cc(N(C)S(C)(=O)=O)c(-c3cc(-c4cc5c(F)cccc5[nH]4)c(=O)n(C(F)F)c3)cc12` [Compound 3, 5-(1-(difluoromethyl)-5-(4-fluoro-1H-indol-2-yl)-6-oxo-1,6-dihydropyridin-3-yl)-2-(4-fluorophenyl)-N-methyl-6-(N-methylmethyl-sulfonamido)benzofuran-3-carboxamide] the same measures were 5.37 nM and 2.98 nM.
The like results for `CNC(=O)c1c(-c2ccc(F)cc2)oc2cc(N(C)S(C)(=O)=O)c(-c3cc(-c4cnn(-c5ccc(F)cc5)c4)c(=O)n(C)c3)cc12` [Compound 4, 2-(4-fluorophenyl)-5-(5-(1-(4-fluorophenyl)-1H-pyrazol-4-yl)-1-methyl-6-oxo-1,6-dihydropyridin-3-yl)-N-methyl-6-(N-methyl-methylsulfonamido)benzo-furan-3-carboxamide] were, in that order, 6.81 nM and 5.71 nM.
Consider `CNC(=O)c1c(-c2ccc(F)cc2)oc2cc(N(C)S(C)(=O)=O)c(-c3cc(-c4nc5ccccc5o4)c(=O)n(C)c3)cc12` [Compound 5, 5-(5-(benzo[d]oxazol-2-yl)-1-methyl-6-oxo-1,6-dihydropyridin-3-yl)-2-(4-fluorophenyl)-N-methyl-6-(N-methylmethylsulfonamido)benzofuran-3-carboxamide], for which the IC50 turned out to be 3.71 nM in the assay with HCV replicon genotype 1b and 5.82 nM with HCV replicon genotype 1a.
As for `CNC(=O)c1c(-c2ccc(F)cc2)oc2cc(N(C)S(C)(=O)=O)c(-c3cc(N4Cc5c(F)cccc5C4=O)c(=O)n(C)c3)cc12` [Compound 6, 5-(5-(4-fluoro-1-oxoisoindolin-2-yl)-1-methyl-6-oxo-1,6-dihydropyridin-3-yl)-2-(4-fluorophenyl)-N-methyl-6-(N-methylmethylsulfonamido)benzofuran-3-carboxamide], the IC50 with HCV replicon genotype 1b was 8.38 nM; in the assay on HCV replicon genotype 1a it was 16.5 nM.
For `CNC(=O)c1c(-c2ccc(F)cc2)oc2cc(N(C)S(C)(=O)=O)c(-c3cc(-c4cc5c(F)cccc5n4C)c(=O)n(C)c3)cc12` [Compound 7, 5-(5-(4-fluoro-1-methyl-1H-indol-2-yl)-1-methyl-6-oxo-1,6-dihydropyridin-3-yl)-2-(4-fluorophenyl)-N-methyl-6-(N-methylmethylsulfonamido)benzofuran-3-carboxamide] the same measures were 1.1 nM and 1.55 nM.
For `CNC(=O)c1c(-c2ccc(F)cc2)oc2cc(N(C)S(C)(=O)=O)c(-c3cc(-c4cc5c(F)cccc5n4C)c(=O)n(C(F)F)c3)cc12` [Compound 8, 5-(1-(difluoromethyl)-5-(4-fluoro-1-methyl-1H-indol-2-yl)-6-oxo-1,6-dihydropyridin-3-yl)-2-(4-fluorophenyl)-N-methyl-6-(N-methyl-methylsulfonamido)benzo-furan-3-carboxamide] the same measures were 5.95 nM and 6.45 nM.
Take `CNC(=O)c1c(-c2ccc(F)cc2)oc2cc(N(C)S(C)(=O)=O)c(-c3cc(-c4cc5ncccc5o4)c(=O)n(C)c3)cc12` [Compound 9, 2-(4-fluorophenyl)-5-(5-(furo[3,2-b]pyridin-2-yl)-1-methyl-6-oxo-1,6-dihydropyridin-3-yl)-N-methyl-6-(N-methylmethylsulfonamido)benzofuran-3-carboxamide]: the IC50 with HCV replicon genotype 1b stood at 4.16 nM; in the assay on HCV replicon genotype 1a, 13.4 nM.
For `CNC(=O)c1c(-c2ccc(F)cc2)oc2cc(N(C)S(C)(=O)=O)c(-c3cc(-c4nc5ncccc5o4)c(=O)n(C)c3)cc12` [Compound 10, 2-(4-fluorophenyl)-N-methyl-5-(1-methyl-5-(oxazolo[4,5-b]pyridin-2-yl)-6-oxo-1,6-dihydropyridin-3-yl)-6-(N-methylmethylsulfonamido) benzofuran-3-carboxamide] the same measures were 10.1 nM and 22.7 nM.
Regarding `CNC(=O)c1c(-c2ccc(F)cc2)oc2cc(N(C)S(C)(=O)=O)c(-c3cc(-c4cc5c(F)cccc5[nH]4)cn(C)c3=O)cc12` [Compound 11, 5-(5-(4-fluoro-1H-indol-2-yl)-1-methyl-2-oxo-1,2-dihydropyridin-3-yl)-2-(4-fluorophenyl)-N-methyl-6-(N-methylmethylsulfonamido)benzofuran-3-carboxamide], the results for the IC50 in the assay on HCV replicon genotype 1b and with HCV replicon genotype 1a were 2.67 nM and 3.84 nM, respectively.
The like results for `CNC(=O)c1c(-c2ccc(F)cc2)oc2cc(N(C)S(C)(=O)=O)c(-c3cc(-c4cc5c(C#N)cccc5[nH]4)cn(C)c3=O)cc12` [Compound 12, 5-(5-(4-cyano-1H-indol-2-yl)-1-methyl-2-oxo-1,2-dihydropyridin-3-yl)-2-(4-fluorophenyl)-N-methyl-6-(N-methylmethylsulfonamido) benzofuran-3-carboxamide] were, in that order, 1.67 nM and 3.28 nM.
The like results for `CNC(=O)c1c(-c2ccc(F)cc2)oc2cc(N(C)S(C)(=O)=O)c(-c3cc(-c4cc5c(F)cccc5[nH]4)c(=O)n(C)n3)cc12` [Compound 13, 5-(5-(4-fluoro-1H-indol-2-yl)-1-methyl-6-oxo-1,6-dihydropyridazin-3-yl)-2-(4-fluorophenyl)-N-methyl-6-(N-methylmethylsulfonamido)benzofuran-3-carboxamide] were, in that order, 6.59 nM and 4.52 nM.
For `CNC(=O)c1c(-c2ccc(F)cc2)oc2cc(N(C)S(C)(=O)=O)c(-c3cc(-c4cc5c(C#N)cccc5[nH]4)c(=O)n(C)n3)cc12` [Compound 14, 5-(5-(4-cyano-1H-indol-2-yl)-1-methyl-6-oxo-1,6-dihydropyridazin-3-yl)-2-(4-fluorophenyl)-N-methyl-6-(N-methylmethylsulfonamido) benzofuran-3-carboxamide] the same measures were 4.43 nM and 3.55 nM.
For `CNC(=O)c1c(-c2ccc(F)cc2)oc2cc(N(C)S(C)(=O)=O)c(-c3cc(-c4cc5ncccc5[nH]4)c(=O)n(C)n3)cc12` [Compound 15, 2-(4-fluorophenyl)-N-methyl-5-(1-methyl-6-oxo-5-(1H-pyrrolo[3,2-b]pyridin-2-yl)-1,6-dihydropyridazin-3-yl)-6-(N-methylmethylsulfonamido) benzofuran-3-carboxamide], the half-maximal inhibitory concentration (IC50) in the assay with HCV replicon genotype 1b worked out at 81.1 nM; with HCV replicon genotype 1a, 238 nM.
